PubChem BioAssay AID504322 (Emory University Molecular Libraries Screening Center, 2011)
Calls of active or inactive are those of the source. How the calls were made is not given here.

Each compound was assayed on CHOP reporter cell assay, percent of control (assay: CHOP reporter inhibitor potency, dose response, cell-based (AID 504322);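 further: CHO cells carrying a CHOP reporter stimulated with tunicamycin to induce ER stress; potency is for inhibition of the stress-induced reporter signal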).
Compound `O=C1C(Nc2ccc(O)cc2)=C/C(=N/S(=O)(=O)c2cccs2)c2ccccc21` has an IC50 of 1.19 µM. In the case of `Cc1cc(-c2[nH]nc3c2C(c2ccc(Cl)cc2)C(C#N)=C(N)O3)c(C)s1` (centres undefined), the IC50 is reported as 7.25 µM (inactive). `O=C(OCn1ncc(Cl)c(Cl)c1=O)c1ccc(F)cc1` was tested, and the IC50 was 3.35 µM. `Cc1nn(-c2ccc(C(F)(F)F)cn2)c(C)c1Oc1ccccc1O` was tested, and the IC50 was 5.94 µM (inactive). In the case of `O=C(Nc1ccc(-c2nc3ccccc3s2)cc1)C1=COCCO1`, the IC50 is reported as 7.48 µM (inactive). For `Cc1cccc(N=Nc2c(N)n[nH]c2-c2ccc(Cl)cc2)c1`, the IC50 was 9.41 µM (inactive). For `Oc1ccc(/C=N/Nc2nc(-c3ccc(Cl)cc3)cc(C(F)(F)F)n2)cc1`, the IC50 was 5.8 µM (inactive). In the case of `Cc1cc(C2=NNC(=NC3CC3)SC2)c(C)n1-c1ccccc1F`, the IC50 is reported as < 0.16 µM. In the case of `C=CCc1cc(C)ccc1OCC(O)CN1CCN(c2ccccc2)CC1` (centres undefined), the IC50 is reported as 3.94 µM (inactive). With `CCCCn1c(=O)[nH]c(=O)c2c1nc(-c1ccc(OCCC)c(OCC)c1)n2C` the IC50 was > 10 µM (inactive). With `CC1(C)C[C@H]2C=C(C=O)[C@]3(C=O)C[C@]3(C)[C@H]2C1` the IC50 was 0.85 µM. For `CCCCN=c1scc(-c2ccc3c(c2)NC(=O)CO3)n1N=C1CCCC1`, the IC50 was 8 µM (inactive). With `CCc1ccc(/C=C2\SC(=S)N(CCCC(=O)Nc3ccccn3)C2=O)cc1` the IC50 was 0.16 µM. Compound `C/C(N)=C(/C#N)C(=O)COC(=O)C1CCC(C(C)(C)C)CC1` (centres undefined) has an IC50 of 2.41 µM. For `Cc1ccc(/C=N/N2C(=S)SC(C)(C)C2N(O)C(=O)Nc2ccc([N+](=O)[O-])cc2)cc1` (centres undefined), the IC50 was 2.67 µM (inactive). `Nc1c(C(=O)Nc2ccccc2F)sc2nc(-c3cccnc3)ccc12` was tested, and the IC50 was > 10 µM (inactive). With `NS(=O)(=O)c1ccc(N/N=C2/CCCCC2C2CCCCC2)c([N+](=O)[O-])c1` (centres undefined) the IC50 was 5.37 µM (inactive). With `CN1C(=O)/C(=C/c2cc(N=Nc3ccccc3)ccc2O)SC1=S` the IC50 was 4.49 µM (inactive). For `CCc1ccc(NP(=O)(Oc2ccccc2F)Oc2ccccc2F)cc1`, the IC50 was 9.66 µM (inactive). `CCC(NC(=O)Nc1nnc(C(F)(F)F)s1)(C(F)(F)F)C(F)(F)F` was tested, and the IC50 was 2.56 µM (inactive). Work on `OCCCNc1nccc(-c2cc(Nc3cccc(Cl)c3)ncn2)n1` yielded an IC50 of 0.3 µM. With `O=C(Cn1c(C(F)(F)F)nc2ccccc21)N=Nc1c(O)[nH]c2ccc(Br)cc12` the IC50 was > 10 µM (inactive). For `CCn1c(=O)c(C(=O)Nc2nc3ccccc3[nH]2)c(O)c2ccccc21`, the IC50 was 5.84 µM (inactive). For `O=C(Nc1ccc([N+](=O)[O-])cc1)Nc1ccc(OC(F)F)c(Cl)c1`, the IC50 was 6.4 µM (inactive). `COC(=O)c1c(NC(=O)Nc2ccc(Cl)cc2)sc(C)c1C` was tested, and the IC50 was 9.33 µM (inactive). In the case of `O=C(/C=C\c1cn(-c2ccccc2)nc1-c1ccccc1)Nc1nccs1`, the IC50 is reported as 6.03 µM (inactive). For `CC(C)(C)C(=O)NC(=S)NNC(=O)C(c1ccccc1)c1ccccc1`, the IC50 was 9.04 µM (inactive). In the case of `CN(C)c1ccc(/C=C2\SC(=O)N(CCc3nnc(N)s3)C2=O)cc1`, the IC50 is reported as 9.8 µM (inactive). `O=C(CCl)N(Cc1cccc([N+](=O)[O-])c1)c1cccc(Cl)c1` was tested, and the IC50 was 9.39 µM (inactive). In the case of `O=C(NNc1ccccc1Br)C(O)(c1cccc(C(F)(F)F)c1)c1cccc(C(F)(F)F)c1`, the IC50 is reported as 2.14 µM. For `Cc1ccc(CNCC(O)(c2ccccc2)c2ccc(Cl)cc2)cc1` (centres undefined), the IC50 was 9.63 µM (inactive). For `Cc1ccc(NC(=O)NC(=O)CN2C(=O)NC3(CCCCCCC3)C2=O)c(C)c1`, the IC50 was 9.53 µM (inactive). In the case of `O=C1/C(=C/c2ccncc2)SC(=S)N1C1CCS(=O)(=O)C1` (centres undefined), the IC50 is reported as 9.91 µM (inactive). Compound `O=c1c(Cl)c(Cl)cnn1Cc1nnc(-c2ccccc2Br)o1` has an IC50 of 3.77 µM. `Cc1ccc(-c2nn(CC(=O)NCc3cc(-c4nn(C)c(=O)c5ccccc45)ccc3C)c(=O)c3ccccc23)cc1` was tested, and the IC50 was 9.88 µM (inactive). In the case of `S=C(Nc1ccccc1)Nc1ccc(OCc2ccc(Cl)cc2Cl)cc1`, the IC50 is reported as 0.33 µM. For `O=S(=O)(Nc1cccc2c1CCCC2)c1cccc(C(F)(F)F)c1`, the IC50 was 9.51 µM (inactive). In the case of `CC(C)Cn1c(=O)c2ccccc2n2c(SCC(=O)N3c4ccccc4CC3C)nnc12` (centres undefined), the IC50 is reported as > 10 µM (inactive). For `Cc1ccc(-n2c(=O)[nH]c3c(C(N)=O)nc(-c4ccc(C)o4)nc32)cc1`, the IC50 was > 10 µM (inactive). `COc1cc(/C=C/C(=O)OC2CC3CCC2(C)C3(C)C)ccc1O` (centres undefined) was tested, and the IC50 was 9.52 µM (inactive). `Cc1cccc(C)c1NC(=O)COc1ccccc1C(=O)Nc1ccc(Br)cn1` was tested, and the IC50 was > 10 µM (inactive). `O=c1oc2ccccc2c(Cl)c1CN1CCCCC1` was tested, and the IC50 was 9.26 µM (inactive). In the case of `CC(C)(C)c1ccc(C(=O)NNC(=O)c2cccc(Br)c2)cc1`, the IC50 is reported as > 10 µM (inactive). `CC(C)CCSc1nc2c(c(=O)[nH]c(=O)n2C)n1CCCc1ccccc1` was tested, and the IC50 was 5.19 µM. `CCCCCCn1c(N2CCC(C)CC2)nc2c1c(=O)[nH]c(=O)n2C` was tested, and the IC50 was 5.4 µM (inactive). `CS(=O)(=O)c1ccc(S(=O)CC(=O)OCc2ccccc2)c([N+](=O)[O-])c1` (centres undefined) was tested, and the IC50 was > 10 µM (inactive). With `Cc1cccc(/C=C/c2nc3ccccc3c(=O)[nH]2)c1` the IC50 was > 10 µM (inactive). `O=C(Nc1ccccc1Cl)/C(Cl)=C(\Cl)S(=O)c1ccccc1` (centres undefined) gave an IC50 of 2.4 µM. With `CC(C)(C)c1cc(CN2CCCC(O)C2)c(O)c(C(C)(C)C)c1` (centres undefined) the IC50 was 5.02 µM. `O=c1c2ccccc2nc2n1CCN2Cc1ccc(Cl)cc1` was tested, and the IC50 was 9.8 µM (inactive). For `CCSc1nc(-c2ccccc2)nc(C(Cl)Cl)n1`, the IC50 was 6.32 µM (inactive). Compound `N#C/C(=C\c1ccc([N+](=O)[O-])o1)c1nc2ccccc2[nH]1` has an IC50 of 2.74 µM. For `Cc1ccc(Nc2nc(N)c([N+](=O)[O-])c(N3CCC(C)CC3)n2)cc1C`, the IC50 was 5.69 µM (inactive). `C=C1C(=O)O[C@@H]2C[C@@H](C)[C@@H]3C=CC(=O)[C@@]3(C)[C@@H](O)[C@H]12` gave an IC50 of 2.61 µM. With `Cc1ccc(C(=O)Nc2cnc3ccccc3c2)cc1` the IC50 was 8.6 µM (inactive). With `O=C(OCn1ncc(Cl)c(Cl)c1=O)c1ccc(C(F)(F)F)cc1` the IC50 was 9.59 µM (inactive). With `Cc1cc(Cl)n2c(nc3ccccc32)c1C#N` the IC50 was > 10 µM (inactive). For `C=C(C)COc1ccc(-c2n[nH]c(C)c2Oc2ccccc2OC)c(O)c1`, the IC50 was 8.82 µM (inactive). For `CCN1/C(=C/c2ccc3cc(C)ccc3[n+]2C)Sc2ccc3sccc3c21`, the IC50 was 5.29 µM (inactive). In the case of `O=C(Nc1ccccc1)Nc1cc(OCC(F)(F)F)cc(OCC(F)(F)F)c1`, the IC50 is reported as 2.34 µM. Work on `O=S(=O)(Nc1cc(Sc2cccc3cccnc23)c(O)c2ccccc12)c1ccc(F)cc1` yielded an IC50 of 2.72 µM. `O=C(Nc1nccs1)c1cc2c(s1)CCCCC2` was tested, and the IC50 was > 10 µM (inactive). In the case of `CCC(C)(C)c1ccc(Oc2ccc(N)cc2)cc1`, the IC50 is reported as < 0.16 µM. `Nc1cccc(Nc2nc(OC(C(F)(F)F)C(F)(F)F)nc(OC(C(F)(F)F)C(F)(F)F)n2)c1` was tested, and the IC50 was 3.09 µM (inactive). In the case of `COc1ccc(C(=O)c2c(C(F)(F)F)oc3c2C(=O)c2ccccc2C3=O)cc1`, the IC50 is reported as 9.46 µM (inactive). `CC(NC(=O)/C(C#N)=C/c1ccc(Cl)c([N+](=O)[O-])c1)c1ccccc1` (centres undefined) was tested, and the IC50 was 9.98 µM (inactive). `Cc1ccc(-c2nc(C(Cl)Cl)c3ccccc3n2)cc1` showed an IC50 of 2.08 µM. With `FC(F)(F)c1ccc(/C=N/NC(=S)NC2CCCCC2)cc1` the IC50 was 5.03 µM. With `CCOC(=O)c1cc(-c2cccs2)nc2c1c(C)nn2-c1ccccn1` the IC50 was 9.14 µM (inactive). `Cc1cccc(NC2=C/C(=N/S(=O)(=O)c3cccs3)c3ccccc3C2=O)c1` gave an IC50 of 4.44 µM. For `CSC(SC)=C(C#N)C(=O)c1ccccc1`, the IC50 was > 10 µM (inactive). In the case of `O=C(/C=C/Sc1ncn[nH]1)c1ccc(Cl)cc1`, the IC50 is reported as > 10 µM (inactive). With `C/C(=N\OCc1cccc(C(=O)O)c1)c1ccc(Cl)cc1` the IC50 was 6 µM (inactive). With `CC(C)CC(NC(=O)c1ccc(Cl)cc1)C(=O)OCC(=O)c1ccc2c(c1)NC(=O)CO2` (centres undefined) the IC50 was 1.6 µM. With `Cc1sc(NC(=O)c2cccc([N+](=O)[O-])c2)c(C(N)=O)c1-c1ccc(C(C)(C)C)cc1` the IC50 was > 10 µM (inactive). `O=C1C(C2=NC(c3ccccn3)C3C(=O)N(c4ccc(OC(F)(F)F)cc4)C(=O)C23)=C(O)c2ccccc21` (centres undefined) was tested, and the IC50 was 4.57 µM. `Nc1cc(Cl)c2nonc2c1[N+](=O)[O-]` was tested, and the IC50 was 5.89 µM (inactive). `Cc1cccc(OCc2nnc(SCc3nc4cc(C(F)(F)F)ccc4c(=O)[nH]3)o2)c1` was tested, and the IC50 was 8.17 µM (inactive). In the case of `O=[N+]([O-])c1ccc(NC(=S)NCCc2ccc(Cl)cc2)cc1`, the IC50 is reported as > 10 µM (inactive). For `Cc1ccc(C(=O)CC(=O)c2cc(Cl)ccc2O)cc1`, the IC50 was 5.51 µM (inactive). With `CCCCCCCCCCCCCCCC[n+]1cccc(C(=O)N(CC)CC)c1` the IC50 was 5.06 µM (inactive). `CCc1ccc(-c2nc(CN3CCC(C(=O)NCCN(CC)c4ccccc4)CC3)c(C)o2)cc1` was tested, and the IC50 was 3.46 µM (inactive). `O=C(CCl)Nc1ccc(Sc2ccc(NC(=O)CCl)cc2)cc1` was tested, and the IC50 was 4.97 µM. For `CC(C)COc1ccc(/C(=N/O)c2ccccc2)cc1`, the IC50 was 5.73 µM (inactive). With `COc1ccc(Cn2c(SCc3cc(C)ccc3C)nc3cc(OC)c(OC)cc3c2=N)cc1` the IC50 was 3.55 µM (inactive). For `Clc1nssc1=Nc1ccc(Br)cc1`, the IC50 was 6.25 µM (inactive). In the case of `C/C=C(\C)C(=O)OC1C(C)=C2C(C1OC(=O)CCCCC)C(C)(OC(C)=O)CC(OC(=O)CCC)C1(O)C2OC(=O)C1(C)O` (centres undefined), the IC50 is reported as < 0.16 µM. `Cn1cnc([N+](=O)[O-])c1S(=O)(=O)c1ccc(Cl)cc1` was tested, and the IC50 was 7.04 µM (inactive). With `CC(=O)N(C1=C(Cl)C(=O)c2ccccc2C1=O)C1CCCCC1` the IC50 was 8.08 µM (inactive). For `CC(=O)/C=C/n1c(=S)oc2ccccc21`, the IC50 was 4.65 µM. With `Cc1ccccc1OCc1n(CC(=O)OC2CC(C)CCC2C(C)C)c2ccccc2[n+]1C` (centres undefined) the IC50 was > 10 µM (inactive). For `Oc1ccc(N=Nc2cccc(C(F)(F)F)c2)cc1C=Nc1ccc(N2CCOCC2)cc1`, the IC50 was 6.97 µM (inactive). For `CCn1c(C)nc2cc(-c3nnc(-c4c(-c5ccccc5)noc4C)o3)ccc21`, the IC50 was 8.88 µM (inactive). `CCCCCCCn1c(=O)c(C(=O)Nc2cnccn2)c(O)c2ccccc21` gave an IC50 of 3.68 µM. `Cc1cccc(/C=C2/S/C(=N/N=C3\CC4CCC3(C)C4(C)C)NC2=O)c1` (centres undefined) was tested, and the IC50 was 4.97 µM (inactive). With `CC(C)(C)c1ccc(-c2n[nH]c(=S)n2C2CCCC2)cc1` the IC50 was 7.55 µM (inactive). With `CC1CCc2cc(F)ccc2N1C(=O)CSc1nnc2c(n1)[nH]c1ccc(F)cc12` (centres undefined) the IC50 was 9.19 µM (inactive). For `CCCCCCCCCS(=O)(=O)N/N=C/c1cccc([N+](=O)[O-])c1`, the IC50 was 3.9 µM (inactive). Compound `CC1CCN(S(=O)(=O)c2ccc3c(c2)C(=NO)c2cc(S(=O)(=O)N4CCC(C)CC4)ccc2-3)CC1` has an IC50 of 0.32 µM.
